Results as given in paper PMC8300937, “New azolyl-derivatives as multitargeting agents against breast cancer and fungal infections: synthesis, biological evaluation and docking study” (Journal of Enzyme Inhibition and Medicinal Chemistry, 2021).
Values after ≈ are worked out from the molar mass of the structure shown. Read-outs that look alike come from different tables or passages of the source.

Assays:
aromatase = details: at 1 µM; cited from earlier work
hCYP19A1 = molecular target: hCYP19A1; set-up: method as in PMID 26481362; details: cocrystallized ligand of hCYP19A1; cited from earlier work
iNOS = molecular target: iNOS; set-up: method as in PMID 26481362; details: cocrystallized ligand of iNOS; cited from earlier work
aromatase (CYP19A) = molecular target: T1, aromatase (CYP19A) (Homo sapiens, UniProt P11511); experiment: Aromatase inhibition, fluorimetric assay kit (Aromatase-CYP19A Inhibitor Screening kit, BioVision); assay type: biochemical; details: read-out: Aromatase % inhibition
T1 construct: purchased BioVision
T1 sequence (P11511 1-503): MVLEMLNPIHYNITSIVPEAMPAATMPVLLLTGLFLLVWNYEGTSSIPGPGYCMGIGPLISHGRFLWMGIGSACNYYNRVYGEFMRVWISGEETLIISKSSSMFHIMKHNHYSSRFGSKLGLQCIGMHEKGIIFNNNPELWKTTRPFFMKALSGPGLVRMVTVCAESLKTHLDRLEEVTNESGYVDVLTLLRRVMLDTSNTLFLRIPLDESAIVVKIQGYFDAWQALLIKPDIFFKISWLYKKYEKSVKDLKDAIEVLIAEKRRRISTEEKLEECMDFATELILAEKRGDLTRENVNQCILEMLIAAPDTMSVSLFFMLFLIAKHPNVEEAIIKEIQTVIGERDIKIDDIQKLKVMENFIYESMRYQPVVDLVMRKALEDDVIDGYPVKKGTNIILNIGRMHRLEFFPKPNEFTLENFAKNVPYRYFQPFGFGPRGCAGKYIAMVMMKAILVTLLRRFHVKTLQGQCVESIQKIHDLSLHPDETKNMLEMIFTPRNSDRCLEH
Protocol: The aromatase inhibitory activity of the novel compounds was determined using a commercial fluorimetric kit (Aromatase CYP19A Inhibitor Screening kit, BioVision, Milpitas, CA, USA). The assay utilises a fluorogenic aromatase substrate, that is converted into a highly fluorescent metabolite detected in the visible range (Ex/Em = 488/527 nm), ensuring a high signal-to-background ratio with little interference by autofluorescence.

Recombinant human iNOS = molecular target: T2, Recombinant human iNOS (Homo sapiens, UniProt P35228); experiment: iNOS inhibition, L-citrulline assay with fluorimetric (HPLC) detection; assay type: biochemical; details: read-out: iNOS % inhibition
T2 construct: purchased Enzo Life Sciences, Inc
Protocol: The injection volume was 5 μL.
Recombinant human iNOS was purchased from Enzo Life Sciences, Inc. (New York, USA).

[1] = Chemical stability in aqueous media at 37 °C (HPLC); assay type: physicochemical
Protocol: Compounds 2 and 5 contain an ester linkage, therefore their chemical stability was evaluated. Phosphate buffer (pH = 7.4), HCl solution (pH = 2.0), NaOH solution (pH = 9.0) were adopted as media. […] Solutions were kept at 37 °C and monitored for 24 h.
A 0.01 M hydrochloric acid buffer (pH 2), as a non-enzymatic simulated gastric fluid (SGF), a 0.01 M phosphate buffer (pH 7.4) as non-enzymatic simulated intestinal fluid (SIF), and a 0.1 mM sodium hydroxide solution (pH 10) were used in this study. The reactions were initiated by adding 0.1 ml of compound stock solution (1 mg/mL in DMSO) to 1.9 ml aqueous buffer solution, in screw-capped vials at 37 ± 0.5 °C. Samples (5 µL) were withdrawn at appropriate intervals, i.e. after 5 min, 1 h, 2 h, 3 h, 4 h, 6 h, 8 h, and then after 24 h incubation time and analysed by HPLC.

[2] = tested on: MCF-7 breast cancer cell line; experiment: Cell metabolic activity (MTT assay); assay type: cell-based; details: Homo sapiens, MCF7; MCF-7, 24 h exposure; read-out: IC50 cell metabolic activity (MTT)
Protocol: (§1) Human breast cancer MCF-7 (HTB-22™) cells were purchased from ATCC® and maintained in Dulbecco’s Modified Eagle Medium (DMEM) high glucose supplemented with 10% of foetal bovine serum (FBS) and 1% of penicillin/streptomycin (all from Gibco-Thermofisher Scientific, MD, USA) at 37 °C and 5% CO2.
Cell metabolic activity of MCF-7 human breast cancer cells was assessed by MTT (3–(4,5-dimethylthiazol-2-yl)-2,5-diphenyltetrazolium bromide) test (Sigma Aldrich, Milan, Italy). Cells were seeded (0.1 × 10^4/well) in a 96-well tissue culture-treated plate (Falcon®, Corning Incorporated, NY, USA) and let them adhere for 24 h. Next, the cell monolayer was incubated in the presence of loading concentrations of compounds 2, 5 and 6 (0–400 µM) diluted in DMSO (final concentration 0.2%) for 24, 48 and 72 h. After the exposure time, cells were incubated with 100 μL/well of MTT (5 mg/mL) 1:10 with fresh growth medium (final concentration 0.5 mg/mL) for 4 h at 37 °C and 5% CO2. Finally, the MTT solution was removed and replaced with 100 µL/well of DMSO. Cells were incubated for an additional 20 min at 37 °C and 5% CO2 and afterward gently swirled for 10 min at room temperature. The optical density was measured at 540 nm by means of a spectrophotometer (Multiskan GO, Thermo Scientific, Monza, Italy). Results were expressed as the percentage of cells in the presence of vehicle (DMSO) set as 100% and each experiment was performed in triplicate (n = 3). Concentration-response curves and IC50 were fitted and calculated with the GraphPad Prism 5.0 (GraphPad Software, San Diego, CA, USA)[27].

MCF-7 cell line = experiment: Cytotoxicity test (lactate dehydrogenase release); assay type: cell-based, human; details: MCF-7, 24 h, 10 µM (lowest concentration tested); DMSO control set as 1
Protocol: as §1
After 24 h, cell supernatants were collected from the MTT plate, centrifuged at 450 × g for 4 min and stored on ice. To quantify the cytotoxicity of loading concentrations of compounds 2, 5 and 6 (0–400 µM), the CytoTox 96® Non-Radioactive Cytotoxicity Assay (Promega Corporation, WI, USA) was performed. The CytoTox 96® Assay quantitatively measures lactate dehydrogenase (LDH), a stable cytosolic enzyme released upon cell lysis. The absorbance signal resulting from the conversion of a tetrazolium salt (iodonitrotetrazolium violet; INT) into a red formazan product was measured at 490 and 690 nm (background) with a spectrophotometer (Multiskan GO, Thermo Scientific, Monza, Italy). The results were normalised on MTT absorbances and expressed as fold increases on the LDH released by cultures in the presence of vehicle (DMSO) set as 1.

C. albicans ATCC 90028 = experiment: Antifungal broth microdilution (EUCAST), standard strain; assay type: cell-based; details: Candida albicans, ATCC90028; C. albicans ATCC 90028; 24 h, ≥50% growth inhibition; read-out: MIC
Protocol: (§2) The antifungal activity of the most representative compounds was evaluated versus one ATCC 90028 strain and 15 clinical isolates belonging to the most clinically relevant Candida spp. (C. albicans, C. tropicalis, and C. glabrata). All strains were stored at −80 °C in Sabouraud Broth (Oxoid LTD, Basingstoke, Hampshire, England) with 20% of glycerine until their use. The strains were grown on Sabouraud CAF agar (Thermo Fisher Scientific Waltham, MA, USA), and incubated for 24–48 h at 37 °C. […] The in vitro antifungal activity was determined by broth microdilution method with RPMI 1640 (Sigma-Aldrich. ST Louis, MO, USA) as recommended by EUCAST, and the E. Def 7.3, method document (http://www.eucast.org). […] Each plate included the following controls: (i) inoculum suspension (growth control), (ii) drug-free medium, (iii) medium with drug, and (iv) distilled water (used for the inoculum preparation). Fluconazole was used as a reference drug according to the EUCAST guidelines. The plates were incubated for 24 h at 37 °C, and then read with a plate reader at 530 nm. […] Three independent experiments were performed in triplicate.

[3] = tested on: C. albicans clinical isolates; experiment: Antifungal broth microdilution (EUCAST), C. albicans clinical isolates; assay type: cell-based; details: Candida albicans
Protocol: as §2

[4] = tested on: C. tropicalis clinical isolates; experiment: Antifungal broth microdilution (EUCAST), C. tropicalis clinical isolates; assay type: cell-based, Candida tropicalis
Protocol: as §2

[5] = tested on: C. glabrata clinical isolates; experiment: Antifungal broth microdilution (EUCAST), C. glabrata clinical isolates; assay type: cell-based, Candida glabrata
Protocol: as §2

**Q.** With `O=C(NCc1ccccc1)OC(Cn1ccnc1)c1ccccc1` (stereo not drawn) [Compound 13a] as the compound, how does the aromatase % inhibition (aromatase) read?
**A.** 81%

**Q.** For `C[C@]12CCC(=O)C=C1CC[C@@H]1[C@@H]2CC[C@]2(C)C(=O)CC[C@@H]12` [4-androstene-3,17-dione], which Ki (hCYP19A1) is on record?
**A.** 0.02 µM

**Q.** Which Ki (iNOS) does the source give for `CCSC(=N)N` [ethylisothiourea] here?
**A.** 0.005 µM

**Q.** Which inhibition at 1 µM (aromatase (CYP19A)) does the source give for `O=C(OC(Cc1ccccc1)Cn1ccnc1)c1ccccc1` (stereo not drawn) [Compound 2, 1-benzyl-2-(1H-imidazol-1-yl)ethyl benzoate] here?
**A.** 77 ± 1.8%

**Q.** What about the inhibition at 1 µM (Recombinant human iNOS) of the same compound?
**A.** 100 ± 2.6%

**Q.** What about the “Chemical stability in acidic medium” value ([1]; HCl solution pH = 2.0, 37 °C, monitored for 24 h) of the same compound?
**A.** stable

**Q.** And the “Chemical stability in neutral medium” value ([1]; Phosphate buffer pH = 7.4, 37 °C, monitored for 24 h)?
**A.** stable

**Q.** What about the half-life at 0.05 mg/mL ([1]; aqueous NaOH solution, NaOH solution pH = 9.0, 37 °C, read-out: half-life of hydrolysis in basic medium) of the same compound?
**A.** 48 min

**Q.** What about the IC50 [2] of the same compound?
**A.** > 200 µM

**Q.** And the “LDH released, fold increase vs control” value (MCF-7 cell line)?
**A.** 1.44 folds

**Q.** What about the MIC (C. albicans ATCC 90028) of the same compound?
**A.** 16 mg/L (≈ 52.2 µM)

**Q.** What about the MIC ([3]; C. albicans 78/5) of the same compound?
**A.** 16 mg/L (≈ 52.2 µM)

**Q.** What about the MIC ([3]; C. albicans 231/5) of the same compound?
**A.** 16 mg/L (≈ 52.2 µM)

**Q.** And the MIC ([3]; C. albicans 308/4)?
**A.** 64 mg/L (≈ 209 µM)

**Q.** What about the MIC ([3]; C. albicans 510/5) of the same compound?
**A.** 16 mg/L (≈ 52.2 µM)

**Q.** And the MIC ([3]; C. albicans 688/5)?
**A.** 32 mg/L (≈ 104 µM)

**Q.** What about the MIC ([3]; C. albicans 712/5) of the same compound?
**A.** 32 mg/L (≈ 104 µM)

**Q.** And the MIC ([3]; C. albicans 887/5)?
**A.** 16 mg/L (≈ 52.2 µM)

**Q.** And the MIC ([3]; C. albicans 943/5)?
**A.** 16 mg/L (≈ 52.2 µM)

**Q.** And the MIC ([3]; C. albicans 1009/40)?
**A.** 16 mg/L (≈ 52.2 µM)

**Q.** And the MIC ([3]; C. albicans SF1)?
**A.** 16 mg/L (≈ 52.2 µM)

**Q.** What about the MIC ([4]; C. tropicalis 295/5) of the same compound?
**A.** 64 mg/L (≈ 209 µM)

**Q.** What about the MIC ([4]; Candida tropicalis, C. tropicalis 74/5, read-out: MIC) of the same compound?
**A.** 64 mg/L (≈ 209 µM)

**Q.** What about the MIC ([5]; C. glabrata 311/5) of the same compound?
**A.** >64 mg/L

**Q.** What about the MIC ([5]; C. glabrata 495/5) of the same compound?
**A.** >64 mg/L

**Q.** What about the MIC ([5]; Nakaseomyces glabratus, C. glabrata 365/5, read-out: MIC) of the same compound?
**A.** > 64 mg/L

**Q.** What about the melting point of the same compound?
**A.** 68 to 69 °C
